Test results published in US20250304587A1, “WEE1 INHIBITOR, PREPARATION THEREFOR AND USE THEREOF” (JIANGSU TASLY DIYI PHARMACEUTICAL CO., LTD., priority 2022, published 2025).
Read-outs that look alike come from different tables or passages of the source.

Experiments:
Wee1 protein = Wee1 protein (Homo sapiens (Human), UniProt P30291); experiment: TR-FRET binding of compound to Wee1 protein and Tracer 178; conditions: Tracer 178, read-out: IC50, inhibitory activity against Wee1 kinase
Procedure: First, solutions of the compounds in different concentration gradients were prepared. The compounds were dissolved in DMSO and the compounds were diluted 4 folds with a total of 10 dose points and 2 parallel replicates for each concentration.
The IC50 for inhibition of enzyme activity by the compounds was then calculated using GraphPad Prism 6 and fitted with a log (inhibitor) vs. response-Variable slope mode. The fitting equation was: Y=Bottom+(Top−Bottom)/(1+10^((Log IC50−X)*HillSlope)), where Y represents the percentage of residual enzyme activity known and X represents the known concentration of compound after the logarithm.

BxPC3 cells = experiment: Cell Titer-Glo anti-proliferation, BxPC3 cells; format: cell-based, human; conditions: 3 days, read-out: Anti-proliferative activity BxPC3 (IC50 class)
Method in brief: (§1)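 Each line was exposed to graded compound concentrations for 3 days at 37 °C, 5% CO2, with final DMSO at 0.2%. Viability was measured by Cell Titer-Glo luminescence, with untreated cells as the maximum and medium as the minimum signal. IC50 came from a variable-slope log(inhibitor)-response fit.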

HT-29 cells = experiment: Cell Titer-Glo anti-proliferation, HT-29 cells; format: cell-based, human; conditions: 3 days, read-out: Anti-proliferative activity HT-29 (IC50 class)
Method in brief: as §1

OVCAR-3 cells = experiment: Cell Titer-Glo anti-proliferation, OVCAR-3 cells; format: cell-based; conditions: 3 days, read-out: Anti-proliferative activity OVCAR-3 (IC50 class)
Method in brief: as §1

HUVEC cells = experiment: Cell Titer-Glo anti-proliferation, normal cells HUVEC; format: cell-based
Procedure: (§2) Compound solutions of different concentration gradients were prepared. […] The cell growth group without compound was used as a positive control (maximum signal control) and the medium was used as a negative control (minimum signal control), while ensuring that the final level of DMSO in each reaction well was 0.2%. After removing the medium from the 384-well plate, 25 μl of the configured compound at different concentrations was transferred into the well plate and the compound and cells were incubated in the cell incubator at 37° C. with 5% CO2 for 3 days.
(§3) The 384-well plates were removed from the cell incubator and allowed to equilibrate for 1 h to room temperature. 25 μl of Cell Titer-Glo assay was added to each well, lysed on a shaker for 2 min and then read out (Luminescence) using a BMG PHERAStar after 10 min incubation. Calculate the inhibition rate from the luminescence signal.
(§4) to calculate the rate of inhibition of the cells by different concentrations of the compounds. The IC50 of the compound on cell activity inhibition was calculated by fitting a log(inhibitor) vs. response-Variable slope model to GraphPad Prism 6. The fitted equation was: Y=Bottom+(Top-Bottom)/(1+10^((Log IC50−X)*HillSlope)), where Y represents the rate of inhibition and X represents the concentration of the known compound after Log.
(§5) B. Evaluation of the Anti-Proliferative Effect of Compounds by the Cell Titer-Glo Method on Normal Cells HUVEC and HK2.
(§6) The test method is the same as the anti-proliferative activity evaluation of tumor cells.

HK2 cells = experiment: Cell Titer-Glo anti-proliferation, normal cells HK2; format: cell-based
Procedure: as §2, §3, §4, §5, §6

[1] = Saturated solubility in buffer at different pH; format: physicochemical
Procedure: The compound was placed in a buffer solution and shaken at constant temperature for 24 h. […] Chromatographic conditions: C18 column, mobile phase A: 0.02 M potassium dihydrogen phosphate:acetonitrile=90:10, mobile phase B: acetonitrile; V: 1.0 ml/min, T: 35° C., λ: 210 nm.

Caco-2 cells = experiment: Membrane permeability in Caco-2 model; format: in vitro ADME
Procedure: (§7) Caco-2 cells were purchased from the American Model Tissue Cell Collection (Rockville, MD). The cell culture medium was modified Eagle's medium (MEM) containing 10% inactivated fetal bovine serum and 1% non-essential amino acids. […] The cells were incubated for 21-28 days after inoculation for transport experiments and the apparent permeability (Papp) of Lucifer Yellow was used to characterize and verify the compactness of the cell monolayer. […] After the incubation, dilute the samples on the apical side and basolateral side, and the concentrations of compounds on the apical and basolateral sides were detected by LC-MS/MS, and the concentrations of the compounds were quantified by standard curve.

hERG potassium channel = hERG potassium channel (Homo sapiens (Human), UniProt Q12809); experiment: hERG potassium channel inhibition, patch clamp in CHO hERG cells
hERG potassium channel, sequence (Q12809 whole entry): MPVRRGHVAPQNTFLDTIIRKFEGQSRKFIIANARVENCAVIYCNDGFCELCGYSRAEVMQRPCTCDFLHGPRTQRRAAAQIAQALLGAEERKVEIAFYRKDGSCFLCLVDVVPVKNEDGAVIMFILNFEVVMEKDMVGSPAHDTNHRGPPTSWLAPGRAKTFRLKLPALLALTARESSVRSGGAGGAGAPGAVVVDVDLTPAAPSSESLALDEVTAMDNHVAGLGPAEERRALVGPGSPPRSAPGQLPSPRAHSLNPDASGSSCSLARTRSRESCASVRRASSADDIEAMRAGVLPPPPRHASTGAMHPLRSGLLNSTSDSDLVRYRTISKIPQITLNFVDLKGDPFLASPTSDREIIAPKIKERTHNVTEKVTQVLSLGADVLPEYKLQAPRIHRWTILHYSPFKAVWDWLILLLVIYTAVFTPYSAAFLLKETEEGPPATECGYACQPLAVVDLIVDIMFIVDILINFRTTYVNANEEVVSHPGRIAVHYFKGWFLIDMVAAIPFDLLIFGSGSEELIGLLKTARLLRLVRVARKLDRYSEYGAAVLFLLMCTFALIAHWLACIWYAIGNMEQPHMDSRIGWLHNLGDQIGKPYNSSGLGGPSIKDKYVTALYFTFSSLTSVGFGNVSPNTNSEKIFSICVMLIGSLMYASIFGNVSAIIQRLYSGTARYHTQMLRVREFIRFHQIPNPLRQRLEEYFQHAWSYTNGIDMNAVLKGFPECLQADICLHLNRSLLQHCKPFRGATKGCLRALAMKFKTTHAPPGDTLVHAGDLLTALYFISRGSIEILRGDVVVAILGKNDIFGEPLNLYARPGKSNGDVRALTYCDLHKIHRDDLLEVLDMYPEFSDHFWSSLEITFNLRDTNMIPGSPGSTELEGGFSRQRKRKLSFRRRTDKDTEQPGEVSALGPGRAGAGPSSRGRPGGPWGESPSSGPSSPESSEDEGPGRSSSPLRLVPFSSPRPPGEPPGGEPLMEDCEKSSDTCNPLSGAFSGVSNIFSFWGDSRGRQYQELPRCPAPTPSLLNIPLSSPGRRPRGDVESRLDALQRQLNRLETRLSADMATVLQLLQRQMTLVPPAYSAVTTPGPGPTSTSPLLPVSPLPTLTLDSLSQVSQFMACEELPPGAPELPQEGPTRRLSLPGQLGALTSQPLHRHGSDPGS
Procedure: The cell line used for the patch clamp assay was a 10th generation CHO cell overexpressing hERG potassium channel cDNA. CHO hERG cells were cultured in Petri dishes or flasks at 37° C. in a 5% CO2 incubator. Cells were dropped onto circular slides 24-48 hours prior to electrophysiological experiments and cultured in cell culture medium and used for experiments after the cells had been adhered.
Cell culture medium (purchased from Invitrogen) Composition: • Ham's F12 medium • 10% (v/v) heat inactivated FBS • 100 μg/ml Hygromycin B (thaumatin) • 100 μg/ml Geneticin (Genomycin, G418)
Compound powders are dissolved in the extracellular solution and are subjected to a routine 5 to 10 minute sonication and shaking to ensure complete dissolution of the compound.
The final concentrations of compounds used for electrophysiological assays were 5, 20 μM and the final concentration of DMSO was 0.1%.
Cell membrane currents were recorded using a HEKA EPC-10 USB patch-clamp amplifier (HEKA Elektronik, Germany). • 1) A coverslip with a large number of uniformly growing individual CHO hERG cells on its surface was taken. Place in a continuous recording cell on an inverted microscope, perfused with extracellular fluid (approximately 1 ml per minute) and recorded continuously, waiting for the current to stabilize. • 2) Record HERG channel currents for individual cells using standard whole cell recording mode. The membrane voltage is first clamped at −80 mV and the cell is given a +20 mV stimulus for 5 s to activate the hERG potassium channel, then repolarized to −50 mV for 5 s to generate an outward tail current, which is continuously perfused until the current is stable, at which point the peak tail current is the control current value. • 3) The extracellular solution containing the drug to be tested was then perfused and recorded until the inhibitory effect of the drug on the hERG current reached a steady state, at which point the peak tail current was the post-drug current value. • 4) The cells are again perfused with the extracellular solution until the hERG current returns to or approaches the level prior to the addition of the drug, then the perfusion can be continued to test other concentrations or drugs. One or more compound or drug concentrations may be tested on each cell. • 5) Cisapride (C4740-10 mg, Sigma) is used as a positive control in the experiment to ensure that the cells used respond properly.

[2] = Toxicity in rats after 14 consecutive days of administration, survival; conditions: 75 mg/kg qd by gavage, 14 days
[3] = Metabolic stability in liver microsomes, mouse; format: in vitro ADME
Procedure: (§8) Test Example 3: Evaluation of the Metabolic Stability of Liver Microsomes (Mouse and Human) In Vitro Microsomes were taken out from the −80° C. refrigerator, rapidly melted in a 37° C. water bath and placed on ice until ready to use. The test article was diluted with DMSO to prepare a 10 mM stock solution, and then diluted with acetonitrile to a 0.5 mM secondary stock solution. […] NADPH was diluted with Buffer C to a working solution of 6 mM for the starter solution. An acetonitrile solution containing an internal standard was prepared as the precipitant, and Verapamil-HCl was chosen as the internal standard at a concentration of 4 ng/ml. […] A separate plate with pointed bottom wells, noted as a precipitation plate, was added with 135 μL precipitant per well; 0 h samples were transferred to the plate after 10 min incubation and 15 μL of starter solution was added; the plate was placed on ice before centrifugation. The diluted starter solution was added in sufficient quantity to the dispensing plate to facilitate the multichannel pipette aspiration operation. The reaction was carried out on a warm incubation shaker and 15 μL of starter solution/sample is added to the plate using a multichannel pipette. The reaction was mixed with a slight shake to initiate the reaction, which was accurately timed and recorded using a timer; After the reaction time had elapsed, all the solution in the plate was aspirated using the multichannel pipette and added to the precipitation plate to terminate the reaction at that point in time. After all reactions had been terminated, the plates were shaken for ten minutes on a plate shaker at 600 rpm to precipitate the protein. The plate was centrifuged at 4° C. for 15 minutes at maximum rpm. 80 μL of supernatant was taken, 320 μL of pure water was added and mixed for LC-MS analysis.

[4] = Metabolic stability in liver microsomes, human; format: in vitro ADME
Procedure: as §8

[5] = Metabolic stability in liver microsomes, rat; format: in vitro ADME
Procedure: as §8, with “Microsomes” for “Test Example 3: Evaluation of the Metabolic Stability of Liver Microsomes (Mouse and Human) In Vitro Microsomes”

[6] = Metabolic stability in liver microsomes, dog; format: in vitro ADME
Procedure: as §8, with “Microsomes” for “Test Example 3: Evaluation of the Metabolic Stability of Liver Microsomes (Mouse and Human) In Vitro Microsomes”

[7] = Metabolic stability in liver microsomes, monkey; format: in vitro ADME
Procedure: as §8, with “Microsomes” for “Test Example 3: Evaluation of the Metabolic Stability of Liver Microsomes (Mouse and Human) In Vitro Microsomes”

plasma protein [8] = experiment: Plasma protein binding (equilibrium dialysis), rat; format: in vitro ADME; conditions: 1 μM, 5 h dialysis
CYP3A4 = CYP3A4 (Homo sapiens (Human), UniProt P08684); experiment: Cytochrome P450 inhibition (fluorescence), CYP3A4; format: in vitro ADME
CYP3A4, sequence (P08684 whole entry, canonical isoform): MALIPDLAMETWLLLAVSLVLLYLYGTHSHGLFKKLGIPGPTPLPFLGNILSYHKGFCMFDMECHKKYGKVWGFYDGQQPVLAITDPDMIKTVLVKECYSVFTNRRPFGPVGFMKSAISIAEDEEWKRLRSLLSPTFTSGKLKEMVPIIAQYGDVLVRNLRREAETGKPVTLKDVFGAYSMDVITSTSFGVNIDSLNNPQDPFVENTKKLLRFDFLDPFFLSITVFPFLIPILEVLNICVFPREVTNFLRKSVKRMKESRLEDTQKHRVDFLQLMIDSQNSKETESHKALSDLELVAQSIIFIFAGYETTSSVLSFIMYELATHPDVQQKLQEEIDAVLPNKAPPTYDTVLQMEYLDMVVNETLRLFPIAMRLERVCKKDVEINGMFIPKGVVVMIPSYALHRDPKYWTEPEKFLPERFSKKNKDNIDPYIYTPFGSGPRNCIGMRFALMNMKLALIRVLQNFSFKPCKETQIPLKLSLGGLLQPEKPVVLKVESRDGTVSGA
Procedure: (§9) Enzymatic experiments were performed to quantify the inhibition of CYP450 enzyme activity of each isoform of CYP450 by small molecule inhibitors through fluorescence generated by the oxidation of the substrate by cytochrome P450. […] The Solution B composition used for the experiment was: 40 U/mL G6PDH (Sigma-aldrich, Cat #G6378). The substrate mix was 0.05× Solution A, 0.01× Solution B, 50 mM Potassium Phosphate, 0.01 mM BOMCC/0.01 mM EOMCC/0.001 mM DBOMF. […] The data were analyzed and processed using GraphPad Prism 6 software to obtain IC50 values.

CYP1A2 = CYP1A2 (Homo sapiens (Human), UniProt P05177); experiment: Cytochrome P450 inhibition (fluorescence), CYP1A2; format: in vitro ADME
CYP1A2, sequence (P05177 whole entry): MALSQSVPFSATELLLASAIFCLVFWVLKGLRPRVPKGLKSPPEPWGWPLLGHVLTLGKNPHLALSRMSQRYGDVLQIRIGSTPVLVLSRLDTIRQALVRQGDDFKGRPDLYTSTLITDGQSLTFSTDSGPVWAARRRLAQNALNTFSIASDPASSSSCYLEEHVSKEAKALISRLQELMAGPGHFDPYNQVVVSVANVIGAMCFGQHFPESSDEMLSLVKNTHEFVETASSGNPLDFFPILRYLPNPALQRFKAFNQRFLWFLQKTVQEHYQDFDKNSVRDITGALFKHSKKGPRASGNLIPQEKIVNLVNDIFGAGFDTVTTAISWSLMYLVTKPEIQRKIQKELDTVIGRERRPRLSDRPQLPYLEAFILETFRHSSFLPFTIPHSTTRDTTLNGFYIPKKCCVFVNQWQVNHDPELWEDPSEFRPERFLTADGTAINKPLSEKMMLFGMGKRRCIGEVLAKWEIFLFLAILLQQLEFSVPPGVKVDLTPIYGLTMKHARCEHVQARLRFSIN
Procedure: as §9

CYP2C9 = CYP2C9 (Homo sapiens (Human), UniProt P11712); experiment: Cytochrome P450 inhibition (fluorescence), CYP2C9; format: in vitro ADME
CYP2C9, sequence (P11712 whole entry): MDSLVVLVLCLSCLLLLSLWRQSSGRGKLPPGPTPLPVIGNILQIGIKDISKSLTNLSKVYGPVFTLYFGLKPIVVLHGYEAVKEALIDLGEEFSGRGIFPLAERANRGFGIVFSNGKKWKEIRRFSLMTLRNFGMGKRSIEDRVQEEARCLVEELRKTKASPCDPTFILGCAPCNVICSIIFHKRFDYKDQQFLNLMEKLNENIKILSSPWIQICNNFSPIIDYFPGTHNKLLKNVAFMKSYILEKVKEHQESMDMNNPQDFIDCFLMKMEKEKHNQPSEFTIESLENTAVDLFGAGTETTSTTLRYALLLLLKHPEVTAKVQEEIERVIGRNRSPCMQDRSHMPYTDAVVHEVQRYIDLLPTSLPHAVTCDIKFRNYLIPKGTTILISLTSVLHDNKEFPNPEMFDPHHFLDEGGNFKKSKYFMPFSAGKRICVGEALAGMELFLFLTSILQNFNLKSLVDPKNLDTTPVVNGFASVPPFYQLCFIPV
Procedure: as §9

CYP2D6 = CYP2D6 (Homo sapiens (Human), UniProt P10635); experiment: Cytochrome P450 inhibition (fluorescence), CYP2D6; format: in vitro ADME
CYP2D6, sequence (P10635 whole entry): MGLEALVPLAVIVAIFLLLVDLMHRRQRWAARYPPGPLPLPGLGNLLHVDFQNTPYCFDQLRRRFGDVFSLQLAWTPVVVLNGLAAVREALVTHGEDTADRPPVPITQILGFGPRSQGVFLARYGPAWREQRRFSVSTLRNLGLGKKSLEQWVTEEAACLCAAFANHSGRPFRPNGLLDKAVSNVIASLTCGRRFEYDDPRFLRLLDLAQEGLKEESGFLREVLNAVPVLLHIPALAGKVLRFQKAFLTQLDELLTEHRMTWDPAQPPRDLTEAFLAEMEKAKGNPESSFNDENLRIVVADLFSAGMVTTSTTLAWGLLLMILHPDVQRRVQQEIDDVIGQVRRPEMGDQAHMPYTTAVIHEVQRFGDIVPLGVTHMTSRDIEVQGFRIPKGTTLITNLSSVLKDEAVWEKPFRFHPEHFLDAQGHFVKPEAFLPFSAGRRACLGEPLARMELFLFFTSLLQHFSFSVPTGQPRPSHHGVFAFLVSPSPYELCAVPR
Procedure: as §9

CYP2C8 = CYP2C8 (Homo sapiens (Human), UniProt P10632); experiment: Cytochrome P450 inhibition (fluorescence), CYP2C8; format: in vitro ADME
CYP2C8, sequence (P10632 whole entry): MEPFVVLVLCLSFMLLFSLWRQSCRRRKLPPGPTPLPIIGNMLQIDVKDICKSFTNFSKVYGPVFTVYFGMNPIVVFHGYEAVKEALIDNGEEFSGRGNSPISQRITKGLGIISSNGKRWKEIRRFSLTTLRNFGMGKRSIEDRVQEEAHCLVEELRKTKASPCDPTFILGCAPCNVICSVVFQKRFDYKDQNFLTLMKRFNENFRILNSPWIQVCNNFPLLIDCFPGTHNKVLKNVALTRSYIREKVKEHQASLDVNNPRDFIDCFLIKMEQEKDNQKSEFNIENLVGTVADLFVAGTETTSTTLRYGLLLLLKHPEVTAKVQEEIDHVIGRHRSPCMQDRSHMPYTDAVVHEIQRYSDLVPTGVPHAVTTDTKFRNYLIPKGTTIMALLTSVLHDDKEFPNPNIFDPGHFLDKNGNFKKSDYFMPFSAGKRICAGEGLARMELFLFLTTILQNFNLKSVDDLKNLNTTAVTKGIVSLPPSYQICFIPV
Procedure: as §9

plasma protein [9] = experiment: Plasma protein binding (equilibrium dialysis), mouse; conditions: mouse plasma, 1 μM, 5 h dialysis
Procedure: Sample preparation: The compound was dissolved in DMSO to a stock solution of 10 mM, then the compound was diluted with PBS to a secondary stock solution of 0.02 mM, and then the above 0.02 mM was diluted to 1 μM using blank plasma, which was the sample to be incubated.
Dialysis set-up preparation: 400 μL of blank PBS was first added to the white wells of the equilibrated dialysis plate and 200 μL of the configured plasma sample was added to the red wells, and the dialysis plate was sealed with a sealing film.
Recovery plate preparation: Two 96-well deep-well plates, labelled T0 and T5, were prepared and all plasma samples were added at n=2. 300 μL of acetonitrile (Verapamil-HCl, 4 ng/mL) was added directly to the TO plate, followed by 50 μL of blank PBS mix well for 5 min and left to stand in a 4° C. refrigerator until the end of the incubation.
Experimental Operation: The dialysis device and the T5 plate were incubated together for 5 h in a microplate thermostatic shaker (37° C., using 300 rpm or minimum speed). At the end of the incubation, 300 μL of acetonitrile (Verapamil-HCl, 4 ng/mL) was added and 50 μL of PBS solution was added. At the end of the dialysis incubation, a new 96-well deep well plate was taken. Add 50 μL of plasma well sample to the corresponding position of the 96-well plate, 300 μL of acetonitrile and 50 μL of blank PBS; take 50 μL of buffer well sample to the corresponding position of the 96-well plate, then add 300 μL of acetonitrile and 50 μL of blank plasma. Add 300 μL of acetonitrile (Verapamil-HCl, 4 ng/mL) to the plasma-containing wells of the T5 plate, and then 50 μL of PBS solution was added. Shake for 5 min to fully precipitate the proteins and centrifuge at 20,000 g for 10 min at 4° C. Add 200 μL of supernatant to 200 μL of pure water, mix well and perform LC-MS/MS analysis.
• Plasma protein binding rate=[(Rpe−Rb)/Rpe]×100% • Recovery=[(Rpe+Rb)/R5 h]×100% • Stability=(R5/R0)×100%
• Rpe=ratio of plasma-side testing sample peak area to internal standard • Rb=ratio of buffer side testing sample peak area to internal standard • R5=ratio of incubator stability sample peak area to internal standard • R0=ratio of refrigerator stability sample peak area to internal standard

[10] = Membrane permeability in Caco-2 model; format: in vitro ADME; conditions: human, Caco-2, pH 7.4
Procedure: as §7

CYP2C19 = CYP2C19 (Homo sapiens (Human), UniProt P33261); experiment: Cytochrome P450 inhibition (fluorescence), CYP2C19; format: in vitro ADME
CYP2C19, sequence (P33261 whole entry): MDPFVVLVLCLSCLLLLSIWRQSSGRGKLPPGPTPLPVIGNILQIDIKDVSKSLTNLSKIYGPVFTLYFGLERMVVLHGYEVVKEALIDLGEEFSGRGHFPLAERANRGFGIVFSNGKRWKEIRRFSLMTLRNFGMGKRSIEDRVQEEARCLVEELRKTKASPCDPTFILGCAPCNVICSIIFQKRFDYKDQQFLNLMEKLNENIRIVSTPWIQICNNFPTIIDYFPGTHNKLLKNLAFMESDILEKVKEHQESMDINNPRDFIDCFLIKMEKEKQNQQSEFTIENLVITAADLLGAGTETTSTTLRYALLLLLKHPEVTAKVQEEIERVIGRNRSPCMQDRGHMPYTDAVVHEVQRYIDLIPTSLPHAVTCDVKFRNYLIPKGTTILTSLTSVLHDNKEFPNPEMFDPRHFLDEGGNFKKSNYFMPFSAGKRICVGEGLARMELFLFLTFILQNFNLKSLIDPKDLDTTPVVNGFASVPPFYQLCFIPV
Procedure: as §9

Wee1 protein, sequence (P30291 whole entry): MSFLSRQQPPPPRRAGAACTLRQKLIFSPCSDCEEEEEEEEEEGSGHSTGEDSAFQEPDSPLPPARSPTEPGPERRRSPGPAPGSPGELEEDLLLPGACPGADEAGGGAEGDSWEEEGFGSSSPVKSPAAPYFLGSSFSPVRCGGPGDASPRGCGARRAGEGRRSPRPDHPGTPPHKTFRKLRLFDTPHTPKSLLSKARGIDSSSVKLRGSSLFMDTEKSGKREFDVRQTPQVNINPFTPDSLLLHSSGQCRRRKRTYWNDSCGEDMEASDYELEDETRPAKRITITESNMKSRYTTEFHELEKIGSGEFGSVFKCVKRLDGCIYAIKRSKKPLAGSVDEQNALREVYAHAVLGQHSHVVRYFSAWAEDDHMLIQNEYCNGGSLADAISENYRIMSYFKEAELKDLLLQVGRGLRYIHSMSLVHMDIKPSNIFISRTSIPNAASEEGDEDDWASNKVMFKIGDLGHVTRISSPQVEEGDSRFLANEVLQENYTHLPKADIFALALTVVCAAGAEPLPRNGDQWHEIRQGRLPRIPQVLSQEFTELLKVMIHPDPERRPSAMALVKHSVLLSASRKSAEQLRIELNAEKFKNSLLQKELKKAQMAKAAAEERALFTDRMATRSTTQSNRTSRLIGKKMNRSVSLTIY

| SMILES | IC50 (Wee1 protein) [nM] | IC50 (BxPC3 cells) [nM] | IC50 (HT-29 cells) [nM] | IC50 (OVCAR-3 cells) [nM] | IC50 (HUVEC cells) [nM] | IC50 (HK2 cells) [nM] | hERG Inhibition (hERG potassium channel; test concentration 5 μM) [%] | hERG Inhibition (hERG potassium channel; test concentration 20 μM) [%] | T1/2 liver microsomes Mouse [3] [h] | T1/2 liver microsomes Human [4] [h] | T1/2 liver microsomes Rat [5] [h] | T1/2 liver microsomes Dog [6] [h] | T1/2 liver microsomes Monkey [7] [h] | Plasma Protein binding (PPB) Rat (plasma protein [8]) [%] | IC50 (CYP3A4; read-out: IC50 CYP3A4) [nM] | IC50 (CYP1A2) [nM] | IC50 (CYP2C9; read-out: IC50 CYP2C9) [nM] | IC50 (CYP2D6; read-out: IC50 CYP2D6) [nM] | IC50 (CYP2C8; read-out: IC50 CYP2C8) [nM] | Plasma Protein binding (PPB) Mouse (plasma protein [9]) [%] | other results |
| --- | --- | --- | --- | --- | --- | --- | --- | --- | --- | --- | --- | --- | --- | --- | --- | --- | --- | --- | --- | --- | --- |
| C=CCn1c(=O)c2cnc(Nc3ccc(N4CCN(C)CC4)cc3)nc2n1-c1ccc2c(n1)[C@@](O)(CC)CC2 [ZnC3, reference compound] | 10 to 100 | 100 to 1000 | 100 to 1000 | 100 to 1000 | > 10000 | 340 | 7.38 ± 1.59 | 18.05 ± 7.58 | – | – | – | – | – | – | – | – | – | – | – | – | Saturated solubility pH 5.0 ([1]; pH 5): 0.35 mg/mL; Saturated solubility pH 6.5 ([1]; pH 6.5): 0.59 mg/mL; Saturated solubility pH 7.4 ([1]; pH 7.4): 0.68 mg/mL; Efflux Ration (Caco-2 cells; Caco2): 35.74; Papp A to B (Caco-2 cells; Caco2, 10 μM, 90 min): 0.42 10^−6 cm/s; Papp B to A (Caco-2 cells; Caco2, 10 μM, 90 min): 15.01 10^−6 cm/s; Survival of Rats ([2]; female rats): 1/7; Survival of Rats ([2]; male rats): 2/7 |
| C=CCn1c(=O)c2cnc(Nc3ccc(N4CCC5(CCN(C)CC5)CC4)cc3)nc2n1-c1ccc2c(n1)[C@](C)(O)C1(CC2)CC1 (racemic) [Compound 44] | – | 100 to 1000 | 100 to 1000 | 100 to 1000 | – | – | 77.68 ± 4.16 | 91.56 ± 2.72 | 1.05 | 1.296 | >2 | 0.7135 | 0.5015 | 96.98 | > 10000 | > 10000 | > 10000 | > 10000 | > 10000 | 98.46 | – |
| CC(C)NCC(O)COc1cccc2ccccc12 (centres unmarked) [Propranolol] | – | – | – | – | – | – | – | – | – | – | – | – | – | – | – | – | – | – | – | – | Papp A→B at 90 min, 10 µM ([10]; Caco2, 10 μM, 90 min): 14.7 ×10⁻⁶ cm/s; Papp B→A at 90 min, 10 µM ([10]; Caco2, 10 μM, 90 min): 13 ×10⁻⁶ cm/s; efflux ratio at 90 min, 10 µM ([10]; Caco2, read-out: Efflux Ration): 0.88 |
| C=CCn1c(=O)c2cnc(Nc3ccc(N4CC5CC(C4)N5C)cc3)nc2n1-c1ccc2c(n1)[C@@](C)(O)C1(CC2)CC1 [Compound 7a] | 5 to 10 | 100 to 1000 | 100 to 1000 | 100 to 1000 | > 10000 | 670 | – | – | 1.209 | 1.057 | 0.357 | 1.541 | 0.2625 | 94.82 | > 10000 | > 10000 | > 10000 | > 10000 | > 10000 | 97.21 | – |
| C=CCn1c(=O)c2cnc(Nc3ccc(N4CCN(C)CC4)cc3)nc2n1-c1ccc2c(n1)C(C)(O)C1(CC1)C2 (centres unmarked) [Compound 3] | 5 to 10 | 1000 to 2000 | 100 to 1000 | 1000 to 2000 | – | – | – | – | – | – | – | – | – | – | – | – | – | – | – | 87.75 | IC50 (CYP3A4): > 10000 nM; IC50 (CYP1A2; read-out: IC50 CYP1A2): > 10000 nM; IC50 (CYP2C9): > 10000 nM; IC50 (CYP2C19): > 10000 nM; IC50 (CYP2D6): > 10000 nM; IC50 (CYP2C8): > 10000 nM |
